The results in this text go back to patent publication US11548903B2, “Bicyclic thiazine and oxazine derivatives as beta-secretase inhibitors and methods of use” (AMGEN INC., priority 2016, dated 2023).

For one test, the target named is human recombinant BACE1 (Homo sapiens (Human), UniProt P56817). The test is described as follows: In vitro enzymatic BACE1 FRET assay. The format is biochemical. The settings on record: read-out: BACE1 Enzyme IC50. How it is done: (§1) In Vitro Enzymatic BACE1 and BACE2 FRET (Fluorescence Resonance Energy Transfer) Assays […] These recombinant proteins were further purified using Ni-NTA affinity chromatography (Qiagen). […] The assay was effectively started by the addition of FRET substrate (50 nM) and the combination was incubated for one hour. The FRET assay was terminated by the addition of tris buffer, which raised the pH to neutrality, and the fluorescence was determined. The FRET substrate was a peptide with commercially available fluorophore and quencher, on opposite sides of the BACE cleavage site. The specific FRET substrate used in this assay was made by Amgen in-house. Commercially available FRET substrates, for example, the FRET substrate offered with the BACE1 FRET Assay Kit sold by ThermoFisher Scientific (Catalog Number P2985), may be used in this assay with the appropriate modifications, which are within the purview of the ability of a person with ordinary skill in the art. Proteolytic cleavage of the FRET substrate released quenching of fluorescence (excitation 488 nm and emission 590 nm).
Sequence of human recombinant BACE1 (P56817 46-501): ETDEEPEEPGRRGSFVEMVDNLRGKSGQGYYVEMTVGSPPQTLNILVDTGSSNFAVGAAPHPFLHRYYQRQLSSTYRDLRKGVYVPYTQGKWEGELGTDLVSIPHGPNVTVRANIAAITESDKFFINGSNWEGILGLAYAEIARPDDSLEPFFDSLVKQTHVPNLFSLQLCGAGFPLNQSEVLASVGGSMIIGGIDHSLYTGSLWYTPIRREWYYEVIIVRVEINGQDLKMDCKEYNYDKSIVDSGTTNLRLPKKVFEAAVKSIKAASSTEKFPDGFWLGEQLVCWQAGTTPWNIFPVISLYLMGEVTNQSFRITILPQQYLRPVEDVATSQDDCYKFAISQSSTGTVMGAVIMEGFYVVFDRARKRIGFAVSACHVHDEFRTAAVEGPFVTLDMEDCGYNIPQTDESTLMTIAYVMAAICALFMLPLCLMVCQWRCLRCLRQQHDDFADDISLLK

Test [1] has as its system BACE1 (Aβ40 from cells stably expressing Amyloid Precursor Protein). The test is described as follows: In vitro BACE1 cell-based assay (Aβ40 in conditioned medium, HTRF). How it is done:
In Vitro BACE1 Cell-Based Assay The cell-based assay measures inhibition or reduction of Aβ40 in conditioned medium of test compound treated cells expressing amyloid precursor protein. Cells stably expressing Amyloid Precursor Protein (APP) were plated at a density of 45K cells/well in 384 well plates (Corning/BioCoat 354663). The test compounds were then added to cells in 22-point dose response concentrations with the starting concentration being 62.5 μM. The compounds were diluted from stock solutions in DMSO and the final DMSO concentration of the test compounds on cells was 0.625%. The cells were cultivated overnight at 37° C. and 5% CO2 in DMEM supplemented with 10% FBS. After 24 h of incubation with the test compounds, the conditioned media was collected and the Aβ40 levels were determined using HTRF (Homogeneous Time Resolved Fluorescence). […] The HTRF to detect Aβ40 was performed in 384 well plates (Costar 3658). The antibody pair that were used to detect Aβ 40 from cell supernatants were ConfAb40 antibody (Amgen in-house) and biotinylated 6E10 (BIOLEGEND). As an alternative to ConfAb40, a commercially available antibody, Anti-beta Amyloid 1-40 antibody [BDI350] from Abcam, Cambridge, Mass. 02139-1517 (Product code: ab20068), may be used in this assay. […] The conditioned media was incubated with above antibodies and Streptavidin Allophycocyanin Conjugate for 30-60 minutes at 23° C. The final readout was performed on Envision from PerkinElmer.
On the technique in general: TR-FRET usually uses a lanthanide donor and a delayed reading to cut background.

The target of another test is human recombinant BACE2 (Homo sapiens (Human), UniProt Q9Y5Z0). The test is described as follows: In vitro enzymatic BACE2 FRET assay. The format is biochemical. The settings on record: read-out: BACE2 Enzyme IC50. The procedure:
as §1

The next test has as its target Recombinant CatD (Homo sapiens (Human), UniProt P07339). The test is described as follows: In vitro enzymatic Cathepsin D (CatD) FRET assay. Format: biochemical. The settings on record: read-out: Cat D Enzyme IC50. How it is done:
In Vitro Enzymatic Cathepsin D (CatD) FRET Assay Recombinant CatD was expressed in CHO cells. The assay buffer for CatD was 0.05 M citrate pH 3.5, 10% DMSO final, 5 mM CHAPS. […] The assays was effectively started by the addition of different FRET substrates (20 nM for CatD) and the combination was incubated for one hour. The FRET assay was terminated with by addition of tris buffer, which raises the pH to neutrality, and the fluorescence was determined. The FRET substrate was a peptide with commercially available fluorophore and quencher, on opposite sides of the CatD cleavage site. The CatD substrate peptide sequence was based on sequence #1 of Table 1 from Gulnik et al., FEBS Lett. 413(2):379-384 (1997). Proteolytic cleavage of the FRET substrate released quenching of fluorescence (CatD excitation 500 nm and emission 580 nm). The in vitro CatD FRET assay data for each of the Examples is provided in Table 2, conducted by the first procedure described above. […] Thus, with this surprising selectivity profile, the compounds provided herein are believed to minimize, reduce or completely eliminate any risk of retinal atrophy and abnormal development of the eye and of the retinal pigmented epithelium as it relates to the normal function and activity of CatD.

[2] abbreviates: Aβ40, 24 h incubation, read-out: BACE1 Cell IC50.

Each structure is given as a SMILES string. Read-outs that look alike come from different tables or passages of the source.

Sequence of Recombinant CatD (P07339 65-412): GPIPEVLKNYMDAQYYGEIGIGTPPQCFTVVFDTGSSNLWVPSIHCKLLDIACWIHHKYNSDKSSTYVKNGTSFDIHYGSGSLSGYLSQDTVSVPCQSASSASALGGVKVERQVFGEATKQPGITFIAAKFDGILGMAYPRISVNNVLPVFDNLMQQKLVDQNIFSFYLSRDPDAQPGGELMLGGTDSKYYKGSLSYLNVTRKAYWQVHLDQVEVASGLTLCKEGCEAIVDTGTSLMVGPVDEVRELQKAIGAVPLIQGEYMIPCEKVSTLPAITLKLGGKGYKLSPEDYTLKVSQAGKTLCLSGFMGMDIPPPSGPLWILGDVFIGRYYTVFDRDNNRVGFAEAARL
Sequence of human recombinant BACE2 (Q9Y5Z0 63-518): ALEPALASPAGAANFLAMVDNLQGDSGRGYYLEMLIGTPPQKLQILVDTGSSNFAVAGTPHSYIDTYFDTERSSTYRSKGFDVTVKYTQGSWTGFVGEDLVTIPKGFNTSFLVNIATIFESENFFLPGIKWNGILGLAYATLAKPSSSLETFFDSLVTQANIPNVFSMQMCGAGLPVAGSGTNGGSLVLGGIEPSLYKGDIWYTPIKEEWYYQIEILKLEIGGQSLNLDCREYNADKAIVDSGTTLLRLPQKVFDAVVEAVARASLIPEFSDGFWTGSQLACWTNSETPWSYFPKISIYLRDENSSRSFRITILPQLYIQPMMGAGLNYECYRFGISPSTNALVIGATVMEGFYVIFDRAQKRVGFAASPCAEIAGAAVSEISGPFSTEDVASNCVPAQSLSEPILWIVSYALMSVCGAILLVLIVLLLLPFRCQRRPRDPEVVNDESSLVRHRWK

As to `N#Cc1ccc(/C(F)=C/c2ccc(F)c([C@@]34CO[C@@H](C(F)(F)F)[C@@H]3COC(N)=N4)c2)nc1` (racemic) [Example 141, 6-((Z)-2-(3-((4aR,5S,7aS)-2-amino-5-(trifluoromethyl)-4a,5,7,7a-tetrahydro-4H-furo[3,4-d][1,3]oxazin-7a-yl)-4-fluorophenyl)-1-fluorovinyl)nicotinonitrile and 6-((Z)-2-(3-((4aS,5R,7aR)-2-amino-5-(trifluoromethyl)-4a,5,7,7a-tetrahydro-4H-furo[3,4-d][1,3]oxazin-7a-yl)-4-fluorophenyl)-1-fluorovinyl)nicotinonitrile], the IC50 (commonly the concentration needed to halve the response being measured) amounted to 86.2 nM at human recombinant BACE1, 0.161 µM in test [1] (setting [2]), 9720 nM on human recombinant BACE2 and 237000 nM on Recombinant CatD.
For the compound `N#Cc1ccc(/C(F)=C/c2ccc(F)c([C@]34CO[C@H](C(F)(F)F)[C@H]3COC(N)=N4)c2)nc1` (single isomer, unassigned) [Example 142], the IC50 on human recombinant BACE1 is 37.2 nM; in test [1] (setting [2]), 0.0588 µM; on human recombinant BACE2 it was 3540 nM; on Recombinant CatD, over 400000 nM.
For `N#Cc1ccc(/C(F)=C/c2ccc(F)c([C@@]34CO[C@@H](C(F)(F)F)[C@@H]3COC(N)=N4)c2)nc1` (single isomer, unassigned) [Example 143], in that order: 9010 nM, 53.5 µM, 140000 nM and 95600 nM.
For the compound `C#CCOc1cnc(/C(F)=C/c2ccc(F)c([C@]34CN(c5ncc(F)cn5)C[C@H]3CSC(N)=N4)c2)cn1` (stereo in doubt) [Example 109, (4aR,7aS)-7a-(2-fluoro-5-((Z)-2-fluoro-2-(5-(prop-2-yn-1-yloxy)pyrazin-2-yl)vinyl)phenyl)-6-(5-fluoropyrimidin-2-yl)-4,4a,5,6,7,7a-hexahydropyrrolo[3,4-d][1,3]thiazin-2-amine], the IC50 at human recombinant BACE1 worked out at 0.149 nM; in test [1] (setting [2]) it was 0.000311 µM; at human recombinant BACE2, 5.49 nM; on Recombinant CatD, 7600 nM.
On to `Cc1noc(COc2cnc(/C(F)=C/c3ccc(F)c([C@]45CN(c6ncc(F)cn6)C[C@H]4CSC(N)=N5)c3)cn2)n1` (stereo in doubt) [Example 110, (4aR,7aS)-7a-(2-fluoro-5-((Z)-2-fluoro-2-(5-((3-methyl-1,2,4-oxadiazol-5-yl)methoxy)pyrazin-2-yl)vinyl)phenyl)-6-(5-fluoropyrimidin-2-yl)-4,4a,5,6,7,7a-hexahydropyrrolo[3,4-d][1,3]thiazin-2-amine], for which the IC50 amounted to 1.56 nM on human recombinant BACE1, 0.00411 µM in test [1] (setting [2]), 85.5 nM on human recombinant BACE2 and 4500 nM at Recombinant CatD.
As to `NC1=N[C@]2(c3cc(/C=C(\F)c4ccc(Cl)cn4)ccc3F)CN(c3ncc(F)cn3)C[C@@H]2CS1` [Example 100, (4aS,7aR)-7a-(5-((Z)-2-(5-chloropyridin-2-yl)-2-fluorovinyl)-2-fluorophenyl)-6-(5-fluoropyrimidin-2-yl)-4,4a,5,6,7,7a-hexahydropyrrolo[3,4-d][1,3]thiazin-2-amine], the IC50 at human recombinant BACE1 came to 847 nM; in test [1] (24 h, read-out: BACE1 Cell IC50 (μM)), 1.25 µM; on human recombinant BACE2 it was 495 nM; on Recombinant CatD, 544000 nM.
With `NC1=N[C@@]2(c3cc(/C=C(\F)c4ccc(Cl)cn4)ccc3F)CN(c3ncc(F)cn3)C[C@H]2CS1` [Example 101, (4aR,7aS)-7a-(5-((Z)-2-(5-chloropyridin-2-yl)-2-fluorovinyl)-2-fluorophenyl)-6-(5-fluoropyrimidin-2-yl)-4,4a,5,6,7,7a-hexahydropyrrolo[3,4-d][1,3]thiazin-2-amine], the IC50 was determined as 1.84 nM at human recombinant BACE1, 0.00194 µM in test [1] (setting [2]), 1.03 nM at human recombinant BACE2 and 49100 nM on Recombinant CatD.
With `N#Cc1ccc(/C(F)=C/c2ccc(F)c([C@]34CN(c5ncc(F)cn5)C[C@H]3CSC(N)=N4)c2)nc1` [Example 102, 6-((Z)-2-(3-((4aR,7aS)-2-amino-6-(5-fluoropyrimidin-2-yl)-4,4a,5,6,7,7a-hexahydropyrrolo[3,4-d][1,3]thiazin-7a-yl)-4-fluorophenyl)-1-fluorovinyl)nicotinonitrile], the IC50 came out at 0.241 nM on human recombinant BACE1, 0.000682 µM in test [1] (setting [2]), 3.08 nM on human recombinant BACE2 and 118000 nM on Recombinant CatD.
`N#Cc1ccc(/C(F)=C/c2ccc(F)c([C@@]34CN(c5ncc(F)cn5)C[C@@H]3CSC(N)=N4)c2)nc1` [Example 103, 6-((Z)-2-(3-((4aS,7aR)-2-amino-6-(5-fluoropyrimidin-2-yl)-4,4a,5,6,7,7a-hexahydropyrrolo[3,4-d][1,3]thiazin-7a-yl)-4-fluorophenyl)-1-fluorovinyl)nicotinonitrile]: the half-maximal inhibitory concentration (IC50) on human recombinant BACE1 is 1.86 nM; in test [1] (setting [2]), 0.00545 µM; at human recombinant BACE2 it was 27.2 nM; on Recombinant CatD it was 246000 nM.
For the compound `NC1=N[C@]2(c3cc(/C=C(\F)c4ccc(Cl)cn4)ccc3F)COC[C@@H]2CS1` [Example 104, (4aR,7aR)-7a-(5-((Z)-2-(5-chloropyridin-2-yl)-2-fluorovinyl)-2-fluorophenyl)-4a,5,7,7a-tetrahydro-4H-furo[3,4-d][1,3]thiazin-2-amine], the IC50 at human recombinant BACE1 was 804 nM; in test [1] (setting [2]), 2.26 µM; on human recombinant BACE2 it was 7480 nM; on Recombinant CatD, 654000 nM.
For the compound `NC1=N[C@@]2(c3cc(/C=C(\F)c4ccc(Cl)cn4)ccc3F)COC[C@H]2CS1` [Example 105, (4aS,7aS)-7a-(5-((Z)-2-(5-chloropyridin-2-yl)-2-fluorovinyl)-2-fluorophenyl)-4a,5,7,7a-tetrahydro-4H-furo[3,4-d][1,3]thiazin-2-amine], the half-inhibitory concentration (IC50) came out at 64.4 nM on human recombinant BACE1, 0.129 µM in test [1] (setting [2]), 56.9 nM on human recombinant BACE2 and 181000 nM on Recombinant CatD.
On to `N#Cc1ccc(/C(F)=C/c2ccc(F)c([C@@]34COC[C@@H]3CSC(N)=N4)c2)nc1` [Example 106, 6-((Z)-2-(3-((4aR,7aR)-2-amino-4a,5,7,7a-tetrahydro-4H-furo[3,4-d][1,3]thiazin-7a-yl)-4-fluorophenyl)-1-fluorovinyl)nicotinonitrile], for which the IC50 on human recombinant BACE1 worked out at 502 nM; in test [1] (setting [2]), 0.985 µM; on human recombinant BACE2 it was 6390 nM; on Recombinant CatD, 815000 nM.
Consider `N#Cc1ccc(/C(F)=C/c2ccc(F)c([C@]34COC[C@H]3CSC(N)=N4)c2)nc1` [Example 107, 6-((Z)-2-(3-((4aS,7aS)-2-amino-4a,5,7,7a-tetrahydro-4H-furo[3,4-d][1,3]thiazin-7a-yl)-4-fluorophenyl)-1-fluorovinyl)nicotinonitrile], for which the IC50 on human recombinant BACE1 was 11.7 nM; in test [1] (setting [2]) it was 0.041 µM; on human recombinant BACE2 it was 279 nM; on Recombinant CatD it was over 400000 nM.
With `COc1cnc(/C(F)=C/c2ccc(F)c([C@]34CN(c5ncc(F)cn5)C[C@H]3CSC(N)=N4)c2)cn1` [Example 108, (4aR,7aS)-7a-(2-fluoro-5-((Z)-2-fluoro-2-(5-methoxypyrazin-2-yl)vinyl)phenyl)-6-(5-fluoropyrimidin-2-yl)-4,4a,5,6,7,7a-hexahydropyrrolo[3,4-d][1,3]thiazin-2-amine], the IC50 on human recombinant BACE1 turned out to be 2.71 nM; in test [1] (setting [2]) it was 0.016 µM; at human recombinant BACE2, 34 nM; at Recombinant CatD, 14800 nM.
